In ChEMBL document CHEMBL5230166, “Novel quinoline-piperazine hybrids: the design, synthesis and evaluation of antibacterial and antituberculosis properties” (RSC Med Chem, 2023):
In brackets after ≈: the same amount, converted by molar mass.

Each molecule was assayed on Mycobacterium tuberculosis (assay: Antibacterial activity multi-drug resistant Mycobacterium tuberculosis H37Rv ATCC 35822 assessed as inhibition of bacterial growth incubated for 2 days by CLSI protocol based broth microdilution method). Conditions: H37Rv ATCC 35822, 48 h, time 2 day.
Format: functional

Q: `CNS(=O)(=O)N1CCN(Cc2cc(OC)c3cc(OC)ccc3n2)CC1` was tested. Which MIC did it give?
A: > 64 µg/mL

Q: With `COc1cc(CN2CCN(S(=O)(=O)c3ccc(NC(C)=O)cc3)CC2)nc2ccc(F)cc12` as the molecule, how does the MIC read?
A: > 64 µg/mL

Q: Which MIC does the source give for `COc1ccc2nc(CN3CCN(S(=O)(=O)c4c(C)cc(C)cc4C)CC3)cc(OC)c2c1` here?
A: > 64 µg/mL

Q: How did the MIC turn out when `COc1cccc(C(=O)N2CCN(Cc3cc(OC)c4cc(OC)ccc4n3)CC2)c1` was run?
A: > 64 µg/mL

Q: How did the MIC turn out when `COc1ccc2nc(CN3CCN(C(=O)c4ccccc4OC)CC3)cc(OC)c2c1` was run?
A: > 64 µg/mL

Q: With `COc1ccc2nc(CN3CCN(C(=O)c4c(Cl)cccc4Cl)CC3)cc(OC)c2c1` as the molecule, how does the MIC read?
A: > 64 µg/mL

Q: With `COc1ccc2nc(CN3CCN(S(=O)(=O)c4ccccc4C(F)(F)F)CC3)cc(OC)c2c1` as the molecule, how does the MIC read?
A: > 64 µg/mL

Q: With `COc1cc(CN2CCN(S(=O)(=O)c3ccc(Cl)cc3Cl)CC2)nc2ccc(F)cc12` as the molecule, how does the MIC read?
A: > 64 µg/mL

Q: With `COc1cc(CN2CCN(C(=O)c3cccc(Cl)c3)CC2)nc2ccc(F)cc12` as the molecule, how does the MIC read?
A: > 64 µg/mL

Q: `COc1ccc2nc(CN3CCN(S(=O)(=O)c4ccccc4F)CC3)cc(OC)c2c1` was tested. Which MIC did it give?
A: 0.5 µg/mL (≈ 1.12 µM)

Q: With `CO[C@H]1/C=C/O[C@@]2(C)Oc3c(C)c(O)c4c(O)c(c(/C=N/N5CCN(C)CC5)c(O)c4c3C2=O)NC(=O)/C(C)=C\C=C\[C@H](C)[C@H](O)[C@@H](C)[C@@H](O)[C@@H](C)[C@H](OC(C)=O)[C@@H]1C` [RIFAMPIN] as the molecule, how does the MIC read?
A: > 64 µg/mL

Q: With `COc1ccc2nc(CN3CCN(C(=O)c4ccccc4F)CC3)cc(OC)c2c1` as the molecule, how does the MIC read?
A: > 64 µg/mL

Q: For `COc1cc(CN2CCN(C(=O)c3cccc(F)c3)CC2)nc2ccc(F)cc12`, which MIC is on record?
A: > 64 µg/mL

Q: Which MIC does the source give for `C[C@H]1COc2c(N3CCN(C)CC3)c(F)cc3c(=O)c(C(=O)O)cn1c23.C[C@H]1COc2c(N3CCN(C)CC3)c(F)cc3c(=O)c(C(=O)O)cn1c23.O` [LEVOFLOXACIN] here?
A: 4 µg/mL

Q: With `COc1ccc2nc(CN3CCN(C(=O)c4ccc(Cl)c(Cl)c4)CC3)cc(OC)c2c1` as the molecule, how does the MIC read?
A: > 64 µg/mL

Q: For `COc1cc(CN2CCN(S(=O)(=O)c3ccccc3F)CC2)nc2ccc(F)cc12`, which MIC is on record?
A: 4 µg/mL (≈ 9.23 µM)

Q: With `COc1ccc(C(=O)N2CCN(Cc3cc(OC)c4cc(F)ccc4n3)CC2)cc1` as the molecule, how does the MIC read?
A: > 64 µg/mL

Q: `COc1cc(CN2CCN(S(=O)(=O)c3ccc(C)cc3)CC2)nc2ccc(F)cc12` was tested. Which MIC did it give?
A: > 64 µg/mL

Q: With `COc1ccc2nc(CN3CCN(S(=O)(=O)c4c(F)c(F)c(F)c(F)c4F)CC3)cc(OC)c2c1` as the molecule, how does the MIC read?
A: > 64 µg/mL

Q: `COc1ccc2nc(CN3CCN(C(=O)C4CCC4)CC3)cc(OC)c2c1` was tested. Which MIC did it give?
A: > 64 µg/mL

Q: Which MIC does the source give for `COc1cc(CN2CCN(C(=O)c3ccccc3F)CC2)nc2ccc(F)cc12` here?
A: > 64 µg/mL

Q: With `COc1ccc2nc(CN3CCN(S(=O)(=O)c4ccc(NC(C)=O)cc4)CC3)cc(OC)c2c1` as the molecule, how does the MIC read?
A: > 64 µg/mL

Q: With `COc1ccc(S(=O)(=O)N2CCN(Cc3cc(OC)c4cc(F)ccc4n3)CC2)cc1` as the molecule, how does the MIC read?
A: > 64 µg/mL

Q: Which MIC does the source give for `COc1ccc2nc(CN3CCN(S(=O)(=O)c4cccs4)CC3)cc(OC)c2c1` here?
A: > 64 µg/mL

Q: With `COc1cc(CN2CCN(C(=O)c3ccccc3C)CC2)nc2ccc(F)cc12` as the molecule, how does the MIC read?
A: > 64 µg/mL

Q: `COc1ccc2nc(CN3CCN(S(=O)(=O)c4cccc5ccccc45)CC3)cc(OC)c2c1` was tested. Which MIC did it give?
A: > 64 µg/mL

Q: How did the MIC turn out when `COc1ccc2nc(CN3CCN(C(=O)c4ccc(Cl)cc4Cl)CC3)cc(OC)c2c1` was run?
A: > 64 µg/mL

Q: How did the MIC turn out when `COc1ccc2nc(CN3CCN(S(=O)(=O)c4ccc(F)cc4)CC3)cc(OC)c2c1` was run?
A: > 64 µg/mL
